Source: patent US9670480B2, “Genome-wide construction of Schizosaccharomyces pombe heterozygous deletion mutants containing gene-specific barcodes by the methods of 4-round serial or block PCR, or total gene synthesis thereof” (Korea Research Institute of Bioscience and Biotechnology, priority 2008, dated 2017)
pIC50: −log10 of the molar value.

Experiments:
[1] = tested on: erg1 heterozygous deletion mutant; experiment: Reconfirmation of GeneChip result on YES agar plates containing terbinafine; format: cell-based, Schizosaccharomyces pombe
Protocol: (§1) Since the drug's modes of action detected with the GeneChip might include the false positive signals resulting experiment errors and false chip analysis, all the top 10 drug's modes of action, except non-specific ribosome-related genes, were cultured again on YES agar plates containing terbinafine. […] Therefore, the genes erg1 and pmm1 within the red boxes were verified as being targets of terbinafine.

[2] = tested on: pmm1 heterozygous deletion mutant; experiment: as above; format: cell-based, Schizosaccharomyces pombe
Protocol: as §1

[3] = tested on: smb1 heterozygous deletion mutant; experiment: as above; format: cell-based, Schizosaccharomyces pombe
Protocol: as §1

Wild-type SP286 strain = experiment: IC50 measurement of growth inhibition in YES broth (final O.D600, Prism); format: cell-based; details: Schizosaccharomyces pombe, 30° C., 24 hours, read-out: IC50 (drug-induced inhibition against cell growth)
Protocol: In order to determine the concentration of the chemical for the treatment, 50% inhibitory concentration (IC50) was first measured. Wild-type SP286 strain was grown to O.D600=2.0 in YES broth and inoculated with from 5- to 10-fold serial dilutions of the chemical to O.D600=0.1, followed by incubation at 30° C. for 24 hours. At each concentration of the chemical, the cultures were measured for final O.D600 values which were then plotted against Log [Chemical Concentration]. On the basis of these plots, IC50 values were automatically calculated using Prism Software (version 3.0, GraphPad Software Inc., San Diego, Calif.). Scientific experience made it possible to determine the concentrations of the chemical at around the appropriate IC50 values.
In order to screen terbinafine's modes of action with the GeneChip, first, the treatment concentrations of drug were determined by the measurements of IC50 obtained in the above-mentioned method. In this regard, relative rates of drug-induced inhibition against cell growth were obtained by treating the cells with terbinafine at doses of 0.1 nM, 1 nM, 5 nM, 10 nM, 50 nM, 100 nM, 500 nM and […]. Analysis with Prism software determined IC50=40 nM (FIG. 11).

In the case of `CN(C/C=C/C#CC(C)(C)C)Cc1cccc2ccccc12` [terbinafine], the “plate reconfirmation of GeneChip-based mode of action, erg1” value [1] was “same results as in the chip”, the “plate reconfirmation of GeneChip-based mode of action, pmm1” value [2] was “same results as in the chip” and the “plate reconfirmation of GeneChip-based mode of action, smb1” value [3] was “difference from the chip result”. It also gave a pIC50 (Wild-type SP286 strain) of 7.40.
